Laboratory results as given in patent US11707472B2, “Compositions for the treatment of fibrosis” (Viking Therapeutics, Inc., priority 2017, dated 2023).

How the values were obtained:
Assay type in all cases: in vivo
DIO-NASH mice = experiment: DIO-NASH mice, 8 weeks oral treatment, liver fibrosis readouts (Example 1); conditions: oral once per day; for liver Picro-Sirius Red (PSR) staining (total liver collagen 1 and 3 by morphometry): Compound 1 10 mg/kg; for proportion of animals with a reduction in fibrosis score post-treatment: vs mock treated animals
Procedure: DIO-NASH mice were acclimatized for 3 weeks, with pre-treatment liver biopsy samples collected prior to acclimatization. Mice were randomly assigned to one of five dosing groups, with 12 mice per group. Assigned dosages were: Compound 2 (low): 3 mg/kg; Compound 2 (high): 10 mg/kg; Compound 1: 10 mg/kg; and Elafibranor (30 mg·kg). One group was mock treated with vehicle only as a control. Dosage forms were administered orally once per day. After 8 weeks, animals were sacrificed and liver samples were taken. Liver samples were assayed for total liver hydroxyproline, and subjected to immunohistochemical observation for fibrosis stage as well as the extent of Cola1 (Collagen Type Ia) staining. […] Since hydroxyproline is a significant component of collagen, and collagen is the most significant source of hydroxyproline in animal tissues, levels of hydroxyproline provide a reliable proxy for the presence of collagen in a sample.
Terminal liver biopsy samples were also subjected to histochemical staining and immunohistochemical staining. Representative images of liver stained with Picro-Sirius Red (to visualize collagen I and III deposition, red stain) at the end of the treatment period following 8 weeks of treatment with vehicle, low dose Compound 2, high dose Compound 2, Compound 1, or elafibranor are shown in FIG. 2. […] Representative images of liver stained with anti-type I collagen (col1a1) (Southern Biotech, Cat. 131001) at the end of the treatment period following 8 weeks of treatment with vehicle, low dose Compound 2, high dose Compound 2, Compound 1, or elafibranor are shown in FIG. 3. The extent of ColA1 content was calculated as the total liver ColA1 staining in terminal liver biopsy samples.
Fibrosis scores were also calculated based on observation of terminal liver biopsy samples.

[1] = tested on: Sprague-Dawley Rats or C57BL mice; experiment: hypertrophic skin lesions induced by capsaicin, CCl4 and/or bleomycin (Example 3); conditions: rat or mouse skin biopsies, 6-10 weeks treatment; relative to levels prior to administration
Excerpt: Hypertrophic skin lesions are induced in Sprague-Dawley Rats by subcutaneous injection of capsaicin as described in Wallengren, J. et al., Skin Pharm. Appl. Skin Physiol. 15(3):154-165 (2002), which is hereby incorporated by reference with respect to its description of the induction of hypertrophic skin lesions in rats; or in C57BL or other appropriate strain mice by subcutaneous administration of CCl4 and/or bleomycin, as described in Alonso-Merino et al., Proc. Nat. Acad. Sci. 113(24):E3451-60 (2016), which is incorporated herein for its disclosure of the induction of fibrotic skin lesions in mice. After the establishment of hypertrophic skin lesions in the capsaicin, CCl4 and/or bleomycin treated animals, test articles comprising any one of Compounds 1-4, or any other compound disclosed herein, are administered to each subject animal as appropriate for its formulation, daily or as appropriate, for 6-10 weeks. Skin biopsies from the injection site are taken prior to the first administration of the test articles and again after sacrifice following the last administration of the test articles. Biopsy samples are analyzed as described in Example I, with the addition of immunohistochemical staining for type III collagen. […] Mock treated animals show little or no reduction in fibrosis, hydroxyproline content, or Collagen III content.

[2] = tested on: male Dunkin-Hartley guinea pigs; experiment: bleomycin-induced pulmonary fibrosis (Example 2); conditions: guinea pig lung biopsies, 6-10 weeks treatment; relative to levels prior to administration
Procedure: Pulmonary fibrosis is induced in healthy male Dunkin-Hartley guinea pigs by administering bleomycin intratracheally. Control subjects are developed by intratracheal administration of saline solution. After the establishment of pulmonary fibrosis in the bleomycin treated animals, test articles comprising any one of Compounds 1-4, or any other compound disclosed herein, are administered to each subject as appropriate for its formulation, daily or as appropriate, for 6-10 weeks. Unilateral lung biopsies are taken prior to the first administration of the test articles and again after sacrifice following the last administration of the test articles. Biopsy samples are analyzed as described in Example I, with the addition of immunohistochemical staining for type III collagen. […] Mock treated animals show little or no reduction in fibrosis, hydroxyproline content, or Collagen III content.

nude mice = experiment: palmar fascia fibrosis induced by Dupuytren's disease fibroblasts (second Example 2); conditions: nude mice forepaw biopsies, 6-10 weeks treatment; relative to levels prior to administration
Excerpt: Palmar fascia fibrosis is induced in nude mice by introducing fibroblasts from fibrotic cords of Dupuytren's disease patients as described in Stish, L. et al., BMC Musculoskelet. Disord. 16: 138-148 (2015) which is hereby incorporated by reference with respect to its description of the establishment of an animal model system for the study of palmar fascia fibrosis. After the establishment of palmar fascia fibrosis in the fibroblast treated animals, test articles comprising any one of Compounds 1-4, or any other compound disclosed herein, are administered to each subject as appropriate for its formulation, daily or as appropriate, for 6-10 weeks. Unilateral forepaw biopsies are taken prior to the first administration of the test articles and again after sacrifice following the last administration of the test articles. Biopsy samples are analyzed as described in Example 1, with the addition of immunohistochemical staining for type I collagen. […] Mock treated animals show little or no reduction in fibrosis, hydroxyproline content, or Collagen III content.

[3] = tested on: Glucose-6-phosphatase-α deficient mice (Agl−/−); experiment: GSD-3-like hepatic symptoms in Agl-/- mice (Example 4); conditions: Agl−/− mice liver biopsies, 6-10 weeks treatment; relative to levels prior to administration
Procedure: (§1) Glucose-6-phosphatase-α deficient mice that manifest GSD-3-like hepatic symptoms, including hypercholesterolemia and hyperlipidemia (Agl−/−, see e.g. Liu, K. M. et al., Mol. Genet. Metabol. 111(4):467-76 (2014)) are treated with test articles comprising any one of Compounds 1-4, or any other compound disclosed herein, administered to each subject as appropriate for its formulation, daily or as appropriate, for 6-10 weeks. Liver biopsies are taken prior to the first administration of the test articles and again after sacrifice following the last administration of the test articles. […] Mock treated animals show little or no reduction in fibrosis, hydroxyproline content, or Collagen I content.

[4] = tested on: Phosphorylase kinase deficient mice (PhKc−/−); experiment: GSD-8/9-like hepatic symptoms in PhKc-/- mice (Example 5); conditions: PhKc−/− mice liver biopsies, 6-10 weeks treatment; relative to levels prior to administration
Procedure: as §1, with “Phosphorylase kinase” for “Glucose-6-phosphatase-α”, “GSD-8/9-like” for “GSD-3-like”, “(PhKc−/−, see, e.g., Varsanyi,” for “(Agl−/−, see e.g. Liu, K.”, “Biochem.” for “Mol.”, “18(3-4):247-61 (1980)),” for “Metabol. 111(4):467-76 (2014))”

[5] = tested on: diet-induced NASH mouse model; experiment: diet-induced NASH mouse model, 8-week dosing (Example 6); set-up: reduction in fibrosis (fibrosis score) / reduction in type 1 collagen deposition / reduction in hydroxyproline / reduction of expression of pro-fibrotic gene Colla1 / reduction of expression of pro-fibrotic gene Col3a1 / reduction of expression of pro-fibrotic gene αSMA / reduction of expression of pro-fibrotic gene Galectin 1: concentration or dose not given beside the values; conditions: diet-induced NASH mice, oral dosing 8 weeks
Procedure: Compound 2 was evaluated in a diet-induced NASH mouse model (See, e.g., Hansen, H. et al., Drug Discovery Today 22(17):1701-1718 (2017) which is hereby incorporated by reference with respect to its disclosure of diet-induced, genetic, chemical, and other NASH mouse models). […] Animals were biopsied pre-study, and only animals with NASH and fibrosis were selected for study. Selected animals were acclimatized and randomized, with experimental groups of 11-12 animals per cohort receiving oral dosing of compound 2 according to the following schedules: Daily dosing for 8 weeks; or daily dosing for week 0-1 followed by weekly dosing for weeks 2-8. At week 8, animals were sacrificed and tissues analyzed. Plasma enzymes (P-ALT (alanine aminotransferase) and P-AST (aspartate aminotransferase)), total plasma triglycerides, and total plasma cholesterol were measured, and terminal necropsy of each liver was carried out, assaying total liver biochemistry including total liver triglycerides, and total liver cholesterol, as well as histological evaluation of NAFLD activity score (done pre- and post-treatment), fibrosis stage (also done pre- and post-treatment), steatosis, Colla1 level, and galactin-3 level. Tissue samples were preserved for characterization using RNAseq; RNAseq was used to determine expression levels for genes showing differential expression in compound 2-treated vs. vehicle treated animals and/or genes known to be implicated in fibrosis.

[6] = Compound 2 3 and 10 mg/kg, vs elafibranor (control) and vehicle (mock)
[7] = liver RNAseq, FIG. 8, vs vehicle-treated controls
[8] = liver, FIG. 7, relative to pre-treatment samples

Cc1cc(OCP(=O)(OCOC(=O)C(C)(C)C)OCOC(=O)C(C)(C)C)cc(C)c1Cc1ccc(O)c(Cc2ccccc2)c1 [Compound 1]
liver Picro-Sirius Red (PSR) staining (total liver collagen 1 and 3 by morphometry) (DIO-NASH mice; [6]): lower PSR staining than those from mock-treated animals | proportion of animals with a reduction in fibrosis score post-treatment (DIO-NASH mice): higher proportion

Cc1cc(OCP2(=O)OCC[C@@H](c3cccc(Cl)c3)O2)cc(C)c1Cc1ccc(O)c(C(C)C)c1 (stereo partly shown) [Compound 2]
animals with increases in fibrosis score post-treatment (DIO-NASH mice): No Compound 2-treated animals showed increases | liver Picro-Sirius Red (PSR) staining (total liver collagen 1 and 3 by morphometry) (DIO-NASH mice; [6]): lower PSR staining than control-treated or mock-treated animals | total liver hydroxyproline (DIO-NASH mice; Compound 2 3 mg/kg (low) and 10 mg/kg (high), vs elafibranor 30 mg/kg (control) and vehicle (mock)): lower total liver hydroxyproline levels than control-treated or mock-treated animals | total liver ColA1 content (anti-type I collagen staining) (DIO-NASH mice; Compound 2 3 and 10 mg/kg, terminal liver biopsy, vs elafibranor (control) and vehicle (mock)): lower total liver ColA1 content than control-treated or mock-treated animals | proportion of animals with a reduction in fibrosis score post-treatment (DIO-NASH mice): higher proportion | injection site skin Collagen III staining [1]: decreased | injection site skin fibrosis score [1]: decreased | injection site skin hydroxyproline levels [1]: reduced levels | lung Collagen III staining [2]: decreased | lung fibrosis score [2]: decreased | lung hydroxyproline levels [2]: reduced levels | palmar fascia Collagen III staining (nude mice): decreased | palmar fascia fibrosis score (nude mice): decreased | palmar fascia hydroxyproline levels (nude mice): reduced levels | liver Collagen I staining [3]: decreased | liver fibrosis score [3]: decreased | liver hydroxyproline levels [3]: reduced levels | liver Collagen I staining [4]: decreased | liver fibrosis score [4]: decreased | liver hydroxyproline levels [4]: reduced levels | NAS scores (NAFLD activity score) [5]: significant improvements | toxicity [5]: No significant toxicity | reduction of total lipid content in the liver ([5]; FIG. 6, vs vehicle-treated controls): approximately 80% | reduction of expression of pro-fibrotic gene Col3a1 [5, 7]: 27.1% | reduction of expression of pro-fibrotic gene Colla1 [5, 7]: 36.3% | reduction of expression of pro-fibrotic gene Galectin 1 [5, 7]: 64.7% | reduction of expression of pro-fibrotic gene αSMA [5, 7]: 37% | reduction in fibrosis (fibrosis score) [5, 8]: 50.2% | reduction in hydroxyproline [5, 8]: 46.3% | reduction in type 1 collagen deposition [5, 8]: 60.2% | liver cholesterol ([5]; relative to untreated controls): Significant reductions | liver triglycerides ([5]; relative to untreated controls): Significant reductions
